How the values were obtained:
[1] = tested on: E. coli (AID#172 & ATCC 25922); conditions: E. coli ATCC 25922; quality control range printed beside agar dilution MIC; cited from earlier work
Text: Supplement 41467_2020_16950_MOESM9_ESM.xlsx, sheet "Supp table 9" | column: Agar (Noble) Dilution MIC Results for AA139 and Comparators

E. coli ATCC 25922 = assay: NPN uptake assay, outer membrane permeabilization; assay type: cell-based, Escherichia coli; conditions: Prism nonlinear fit, One site - specific binding with Hill slope, Bmax = 100
E. coli DSA 443 ESBL = assay: Murine urinary tract infection (UTI) model; assay type: in vivo, E. coli in OF-1 mice; conditions: for Day 3 Bladder, Mean Diff. Vehicle vs. Meropenem 40 mg/kg / Day 3 Urine, Mean Diff. Vehicle vs. Meropenem 40 mg/kg: Dunnett's multiple comparisons test; for Day 3 Urine, Mean 2 (group mean) / Mean Diff., Vehicle vs. treated / Mean 2 (group mean bacterial count): Meropenem 40 mg/kg; for Day 3 Urine, Mean 2 (group mean): n2 = 8; for Mean Diff., Vehicle vs. treated / Mean 2 (group mean bacterial count): UTI model, Day 3 Kidneys

Compound | MIC QC range [1] | h (Hill slope, best-fit value) (E. coli ATCC 25922) | Day 3 Bladder, Mean Diff. Vehicle vs. Meropenem 40 mg/kg (E. coli DSA 443 ESBL; Arenicin-3 study) | Day 3 Urine, Mean Diff. Vehicle vs. Meropenem 40 mg/kg (E. coli DSA 443 ESBL; Arenicin-3 study) | DAY 3 BLADDER, Mean (E. coli DSA 443 ESBL; ESBL E. coli DSA 443, Meropenem 40 mg kg-1, bladder, day 3, Prism column statistics, mean of n = 12) | Day 3 Urine, Mean 2 (group mean) (E. coli DSA 443 ESBL; Arenicin-3 study) | Day 3 Urine, Mean 2 (group mean) (E. coli DSA 443 ESBL; NZ17143 study) | Day 3 Urine, Mean 2 (group mean) (E. coli DSA 443 ESBL; NZ17211 study) | Day 3 Bladder, Mean Diff. Vehicle vs. Meropenem 40 mg/kg (E. coli DSA 443 ESBL; NZ17143 study) | Day 3 Urine, Mean Diff. Vehicle vs. Meropenem 40 mg/kg (E. coli DSA 443 ESBL; NZ17143 study) | Day 3 Bladder, Mean Diff. Vehicle vs. Meropenem 40 mg/kg (E. coli DSA 443 ESBL; NZ17211 study) | Day 3 Urine, Mean Diff. Vehicle vs. Meropenem 40 mg/kg (E. coli DSA 443 ESBL; NZ17211 study) | Mean Diff., Vehicle vs. treated (E. coli DSA 443 ESBL; Arenicin-3 experiment) | Mean Diff., Vehicle vs. treated (E. coli DSA 443 ESBL; NZ17143 experiment) | Mean Diff., Vehicle vs. treated (E. coli DSA 443 ESBL; NZ17211 experiment) | Mean 2 (group mean bacterial count) (E. coli DSA 443 ESBL; comparator arm of Arenicin-3 experiment) | Mean 2 (group mean bacterial count) (E. coli DSA 443 ESBL; comparator arm of NZ17143 experiment) | Mean 2 (group mean bacterial count) (E. coli DSA 443 ESBL; comparator arm of NZ17211 experiment)
C[C@H]1COc2c(N3CCN(C)CC3)c(F)cc3c(=O)c(C(=O)O)cn1c23 [LEV, levofloxacin, reference compound] | 8 to 60 ng/mL | – | – | – | – | – | – | – | – | – | – | – | – | – | – | – | – | –
C[C@@H](O)[C@H]1C(=O)N2C(C(=O)O)=C(S[C@@H]3CN[C@H](C(=O)N(C)C)C3)[C@H](C)[C@H]12 [Meropenem, meropenem, reference compound] | – | 0.3497 | 2.654 | 5.07 | 3.523 | 1.314 | 1.812 | 1.325 | 2.624 | 4.004 | 4.176 | 5.546 | 0.4699 | 0.6355 | 0.1396 | 2.023 | 1.446 | 2.631
